Measured values taken from patent publication US10080366B2, “Agent for increasing sugar content in fruit” (RIKEN, priority 2012, dated 2018).
Where “and” joins values, the source holds several entries; their conditions need not be identical. Identical values can stand only once. Like-named read-outs stand apart in the source and are kept apart here.

What was measured:
Cherry (Sato Nishiki) = conditions: 5 g/L, three times at intervals of 7 days; 28 days after first application
From the text: The water-soaked symptom in cherry is known to be caused by calcium deficiency. In this respect, an investigation was made as to whether or not the degree of occurrence of water-soaked symptom 28 days after the date of the first application was different between untreated cherries and cherries to which an aqueous potassium hydrogen carbonate solution (5 g/L) was applied three times at intervals of 7 days one month before the harvest time. […] The occurrence (%) of water-soaked symptom=the number of cherries in which the water-soaked symptom occurred/the number of cherries tested×100

Pinot noir = test: Acceptability of fruit for wine (Example 11); assay type: in vivo, grape; conditions: Example 1 sample
From the text: As in the case where agriculture workers check whether or not a berry can be used for wine, the criteria of the acceptability were based the appearance (appearance associated with mold, rot, or the like, whether or not the fruit juice or fruit pulp was lost, and the like), taste (whether or not the berry was normal, when eaten, and the like), and odor (whether or not a foreign odor or the like was present). A berry having no problem in terms of any of the appearance, taste, and odor was determined to be acceptable, and a berry having any problem was determined to be not acceptable.

fruits of cherry tomato = tested on: fruits of cherry tomato
Method: (§1) An agent for increasing a sugar content in a fruit (containing Sorbon T-20 as a spreader/sticker at a final concentration of 200 μL/L) diluted with water to have a potassium hydrogen carbonate concentration of 10 g/L was prepared. The masses of fruits of apple and cherry tomato purchased on the market were measured. Then, the prepared agent for increasing a sugar content in a fruit was applied by spraying to the fruits. The fruits were allowed to stand still in an air-conditioned greenhouse, and the masses of the apples and cherry tomatoes were measured on the date of application (date of application: Nov. 30, 2011; date of test: Dec. 5, 2011). In addition, as a control, the masses of untreated apples and cherry tomatoes were measured in the same manner.
(§2) The estimated transpiration ratio (%) was calculated by “the estimated amount (g) of transpiration/the mass (g) before application×100.”
(§3) The transpiration ratio was calculated by “the estimated transpiration ratio of the target sample (treated by application of potassium hydrogen carbonate or untreated)/the estimated transpiration ratio of the untreated sample.”

fruits of apple = tested on: fruits of apple
Method: as §1, §2, §3

[1] = tested on: Lettuce (leaves: Great Lakes); conditions: 5 g/L, three times at intervals of one week
From the text: (§4) To each of the plants shown in Table 16 below, an aqueous potassium hydrogen carbonate solution (5 g/L for lettuce and 10 g/L for the other plants) was applied three times at intervals of one week from one month before the harvest. The plants were harvested three weeks after the start of the application. Untreated plants not treated with the aqueous potassium hydrogen carbonate solution were harvested at the same time. After the harvest, the total amount of amino acids in each sample was determined, and the ratio of the total amount of amino acids in the plant treated with potassium hydrogen carbonate to the total amount of amino acids in the untreated plant was determined.

[2] = tested on: Rice plant (grains: Nipponbare); conditions: 10 g/L, three times at intervals of one week
From the text: as §4

Tomato (fruit: Regina) = conditions: 10 g/L, three times at intervals of one week
From the text: as §4

Celery = conditions: 10 g/L aqueous solution at intervals of one week; browning index 0-5, five plants
From the text: (§5) In general, calcium deficiency in lettuce and celery occurs from summer to fall. Heart rot symptom develops in lettuce, and change in color and blackening of new leaves develop in celery. In addition, tipburn may also occur in lettuce. A 10 g/L aqueous potassium hydrogen carbonate solution was applied at intervals of one week to lettuce and celery in which no symptom of calcium deficiency had yet developed, and whether or not the symptom became milder than that of an untreated group was observed. Five plants were subjected to each treatment, and the degree of the symptom of calcium deficiency was determined on the basis of the degree of browning of leaves at the harvest.
(§6) 0: no browning, 0.5: browning occurred only in very small portions on the edges of leaves, 1.0: browning occurred in portions on the edges of […], 2.0: browning occurred from edges of leaves to the inside, 3.0: the degree of browning was considerable, 5.0: the browning of leaves was remarkable. Degree of occurrence=(Index 5×the number of plants in which the corresponding blowing occurred+Index 3×the number of plants in which the corresponding blowing occurred+Index 2×the number of plants in which the corresponding blowing occurred+Index 1×the number of plants in which the corresponding blowing occurred+Index 0.5×the number of plants in which the corresponding blowing occurred)/5 plants

Lettuce (Great Lakes) = conditions: 10 g/L aqueous solution at intervals of one week; browning index 0-5, five plants
From the text: as §5, §6

[3] = tested on: clusters of grape (variety: Crimson); test: Estimated transpiration ratio of grape clusters (Example 9); assay type: in vivo; conditions: 10 g/L; 8 days after treatment
[4] = tested on: grapes (varieties: Chardonnay, Pinot noir, Merlot, and Cabernet Sauvignon); conditions: for sugar content in fruit compared with untreated: 3000 L/ha, entire vines, repeated, all four varieties
Method: To the entire vines including leaves and stems of grapes (varieties: Chardonnay, Pinot noir, Merlot, and Cabernet Sauvignon, 7 years old) in a farm field, an agent (containing Sorbon T-20 as a spreader/sticker at a concentration of 200 μL/L) for increasing a sugar content in a fruit diluted with water to have a potassium hydrogen carbonate concentration of 5 g/L or 10 g/L was applied in a sufficient amount (3000 L/ha (in this case, the amount of potassium hydrogen carbonate was 15 kg/ha for the 5 g/L sample or 30 kg/ha for the 10 g/L sample) each time. The application was repeatedly conducted at intervals of approximately 2 weeks or approximately 1 week as shown in FIGS. 1 to 4. The sugar concentration in the fruit was measured over time. As a control, unapplied vines were provided. The sampling was started before the first application, and a sample was collected before each application, and measured for the sugar content. Three vines were used for each treated group. Note that the expected harvest dates were September 20 for Chardonnay, October 10 for Merlot, October 20 for Cabernet Sauvignon, and September 30 for Pinot noir.
For the measurement of the sugar content, three clusters were taken from each of the treated vines on each of the dates of measurement, and the juice was squeezed and measured for the Brix sugar content (%) with a refractometer for sugar content (manufactured by Atago Co., Ltd.). Likewise, the acidity (%) was also measured with an acidity meter (manufactured by Atago Co., Ltd.).

O=C([O-])O.[K+] [Potassium hydrogen carbonate, potassium hydrogen carbonate]
Occurrence (%) of water-soaked symptom (Cherry (Sato Nishiki)): 7% | Acceptable ratio (%) of fruit (Pinot noir; 5 g/L): 75% | Acceptable ratio (%) of fruit (Pinot noir; 10 g/L): 80% | Transpiration ratio (treated/untreated) (fruits of cherry tomato; 10 g/L): 1.93 | Mass (g) on date of test (fruits of cherry tomato; 10 g/L, Dec. 5): 193.30 g | Estimated amount (g) of transpiration (fruits of cherry tomato; 10 g/L, Nov. 30 to Dec. 5): 21.75 g | Estimated transpiration ratio (%) (fruits of cherry tomato; 10 g/L, Nov. 30 to Dec. 5): 10.12% | Mass (g) before application (fruits of cherry tomato; Nov. 30): 215.05 g | Transpiration ratio (treated/untreated) (fruits of apple; 10 g/L): 1.65 | Mass (g) on date of test (fruits of apple; 10 g/L, Dec. 5): 263.69 g and 274.65 g | Estimated amount (g) of transpiration (fruits of apple; 10 g/L, Nov. 30 to Dec. 5): 9.15 g and 11.66 g | Estimated transpiration ratio (%) (fruits of apple; 10 g/L, Nov. 30 to Dec. 5): 3.35% and 3.72% | Estimated transpiration ratio (average) (%) (fruits of apple; 10 g/L, average of two apples): 3.54% | Mass (g) before application (fruits of apple; Nov. 30): 272.84 g and 286.31 g | Amino acid concentration ratio (treated/untreated) [1]: 1.5 | Amino acid concentration ratio (treated/untreated) [2]: 1.2 | Amino acid concentration ratio (treated/untreated) (Tomato (fruit: Regina)): 1.8 | Degree of occurrence of calcium deficiency (Celery): 0.3 | Degree of occurrence of calcium deficiency (Lettuce (Great Lakes)): 0.2 | Estimated transpiration ratio (%) Average [3]: 31% | Estimated transpiration ratio (%) First [3]: 33% | Estimated transpiration ratio (%) Second [3]: 28% | acidity compared with untreated ([4]; 5 g/L or 10 g/L): kept equal to or slightly higher than that of the untreated group | sugar content in fruit compared with untreated ([4]; 5 g/L): greater increase in sugar content than the untreated fruit of grape | sugar content in fruit compared with untreated ([4]; 10 g/L): greater increase in sugar content than the untreated fruit of grape
